Reference: patent US9650614B2, “Anaplastic lymphoma kinase (ALK) as oncoantigen for lymphoma vaccination” (priority 2007, dated 2017)
“Also recorded” adds a separate entry of the source.

Columns and labels:
NPM-ALK lymphoma cells [1] = assay: in vitro survival of lymphoma cells with doxorubicin (TMRM staining, flow cytometry); format: cell-based, murine; conditions: 24 or 48 hours, increasing concentrations
Procedure: FIG. 6. NPM-ALK lymphoma cells are sensitive to doxorubicin. NPM-ALK lymphoma cells were incubated in vitro for 24 or 48 hours with increasing concentrations of doxorubicin. Percentages of alive cells were calculated by TMRM staining and flow cytometry analyses.
To mimic more strictly these clinical settings, the efficiency of the vaccination strategy disclosed herein in association with chemotherapy, which remains the standard therapeutic strategy for human Anaplastic Large Cell Lymphomas (ALCL), was tested.

NPM-ALK lymphoma cells [2] = assay: i.v. lymphoma treated with single dose doxorubicin followed by DNA vaccination; format: in vivo, BALB/c mice
Description: FIG. 2. Efficacy of ALK vaccination in preventing disseminated lymphoma growth and in lymphoma therapy (a,b) Disseminated growth of NPM-ALK lymphoma cells injected in the tail vein in mock or ALK plasmid vaccinated BALB/c mice. (a) All mock vaccinated mice challenged i.v. 7 days after the second vaccination with 1×10^6 NPM-ALK lymphoma died of lymphoma outgrowth within 50 days after challenge while 70% of ALK vaccinated mice remained alive and well for all the observation period of 180 days. […] (c) Increasing amounts of NPM-ALK lymphoma cells were injected s.c. in BALB/c mice on day 0. Mice were then vaccinated as described above on days 1 and 8. Tumor growth was followed over time. Data are from one of two independent experiments with at least 7 mice for each group. * P<0.01. (d) BALB/c mice were i.v. injected with 1×10^6 NPM-ALK lymphoma cells on day 0. On day 7 mice received i.v. 10 mg/kg of doxorubicin (dashed arrow) followed on days 14, 21 and 28 by DNA vaccination with empty (mock) or ALK-expressing plasmids (full arrows). Mice were then followed up to 90 days. […] Tumor size was measured over time. […]
A single dose chemotherapy protocols was employed using doxorubicin (10 mg/kg) 7 day prior the i.v. injection of a challenging dose (1×10^6) of NPM-ALK positive lymphoma cells. […] Tumor growth and overall survival were determined, overtime.

[3] = test system: NPM-ALK expressing lymphoma cells; assay: s.c. challenge with NPM-ALK lymphoma cells after DNA vaccination; format: in vivo, BALB/c mice; conditions: vaccinated twice at a week interval; s.c. challenge one week after second vaccination
Procedure: FIG. 1. ALK vaccination prevents the growth of NPM-ALK positive lymphoma cells. (a,b) BALB/c mice were vaccinated on day 0 and 7 in both the tibial muscles with 40 μg of pDEST plasmid or with pDEST-ALK (ALK) plasmid coding for the full ALK tyrosine kinase intracytoplasmic domain (a) or with pDEST-ALKt (ALKt) coding for a truncated portion of ALK lacking the part of the tyrosine kinase domain (b). An additional group of mice was vaccinated with the pDEST-ALK or pDEST-ALKt plasmids combined with the same amount of a pcDNA3 plasmid coding for GM-CSF. […]
Mice were challenged subcutaneously in the right flank with 0.2 ml PBS of a single suspension containing 10^5 to 10^6 ALK-OVA and VAC lymphoid cells, as indicated in each experiment. The cages were coded, and the incidence and the growth of tumors were evaluated at the indicated times in a blind fashion. Neoplastic masses were measured with calipers in the two perpendicular diameters.
For DNA electroporation, 50 μg of pDEST empty vector or pDEST-ALK (ALK) vector in 20 μl of 0.9% NaCl with 6 mg/ml polyglutamate were injected on days 0 and 7 into both the tibial muscle of anesthetized BALB/c mice. […] Protection was evaluated as the percentage of lymphoma-free mice 21 days after challenge.

Molecule	sensitivity of lymphoma cells (apoptosis / alive cells) (NPM-ALK lymphoma cells [1])	cure rate (NPM-ALK lymphoma cells [2]; chemotherapy alone (single dose doxorubicin one week after 1×10^6 cells i.v.)) [%]	survival (NPM-ALK lymphoma cells [2]; chemotherapy alone versus untreated mice)	protection from localized lymphoma growth [3]
COc1cccc2c1C(=O)c1c(O)c3c(c(O)c1C2=O)C[C@@](O)(C(=O)CO)C[C@@H]3O[C@H]1C[C@H](N)[C@H](O)[C@H](C)O1 [doxorubicin]	sensitive; also recorded: rapid apoptosis with low doses	60	prolonged their survival	
pDEST-ALK^K210R: pDEST plasmid encoding cytoplasmic portion of kinase dead mutant K210R of ALK (SEQ ID No.:3)				total protection
pDEST-ALKt: pDEST plasmid with truncated form of ALK lacking part of the tyrosine kinase domain (SEQ ID No.: 2) (nucleic acid, portion of cytoplasmic domain of ALK - human) DNA: TGCTTTGCTGGCAAGACCTCCTCCATCAGTGACCTGAAGGAGGTGCCGCGGAAAAACATCACCCTCATTCGGGGTCTGGGCCATGGCGCCTTTGGGGAGGTGTATGAAGGCCAGGTGTCCGGAATGCCCAACGACCCAAGCCCCCTGCAAGTGGCTGTGAAGACGCTGCCTGAAGTGTGCTCTGAACAGGACGAACTGGATTTCCTCATGGAAGCCCTGATCATCAGCAAATTCAACCACCAGAACATTGTTCGCTGCATTGGGGTGAGCCTGCAATCCCTGCCCCGGTTCATCCTGCTGGAGCTCATGGCGGGGGGAGACCTCAAGTCCTTCCTCCGAGAGACCCGCCCTCGCCCGAGCCAGCCCTCCTCCCTGGCCATGCTGGACCTTCTGCACGTGGCTCGGGACATTGCCTGTGGCTGTCAGTATTTGGAGGAAAACCACTTCATCCACCGAGACATTGCTGCCAGAAACTGCCTCTTGACCTGTCCAGGCCCTGGAAGAGTGGCCAAGATTGGAGACTTCGGGATGGCCCGAGACATCTACAGGGCGAGCTACTATAGAAAGGGAGGCTGTGCCATGCTGCCAGTTAAGTGGATGCCCCCAGAGGCCTTCATGGAAGGAATATTCACTTCTAAAACAGACACATGGTCCTTTGGAGTGCTGCTATGGGAAATCTTTTCTCTTGGATATATGCCATACCCCAGCAAAAGCAACCAGGAAGTTCTGGAGTTTGTCACCAGTGGAGGCCGGATGGACCCACCCAAGAACTGCCCTGGGCCTGTATACCGGATAATGACTCAGTGCTGGCAACATCAGCCTGAAGACAGGCCCAACTTTGCCATCATTTTGGAGAGGATTGAATACTGCACCCAGGACCCGGATGTAATCAACACCGCTTTG				total protection
